One data set addresses T1, Aurora-A kinase (Homo sapiens, UniProt O14965).
T1 sequence (O14965 1-403): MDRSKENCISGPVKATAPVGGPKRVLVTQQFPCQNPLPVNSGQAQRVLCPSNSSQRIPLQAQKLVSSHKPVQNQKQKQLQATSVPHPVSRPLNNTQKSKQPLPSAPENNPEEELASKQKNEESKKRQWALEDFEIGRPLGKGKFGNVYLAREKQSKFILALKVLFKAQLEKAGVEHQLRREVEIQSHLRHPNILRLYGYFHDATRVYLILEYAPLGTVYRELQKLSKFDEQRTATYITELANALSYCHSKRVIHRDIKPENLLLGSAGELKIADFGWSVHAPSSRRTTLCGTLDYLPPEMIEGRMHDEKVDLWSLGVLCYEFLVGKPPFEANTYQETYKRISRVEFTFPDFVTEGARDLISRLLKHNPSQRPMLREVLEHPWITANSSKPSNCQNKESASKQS
Description: ChEF-based assay (PhosphoSens) of Aurora-A kinase activity.

In data set [1] the test system is various cancerous cell lines. Further details: method as in PMID 16204078. As to conditions: cited from earlier work.
Another data set relates to DLBC lymphoma cell lines. Details: method as in PMID 31850205. As to conditions: cited from earlier work.
Data set [2] deals with A375 melanoma human tumor xenograft. Details: method as in PMID 16204078. As to conditions: A375 melanoma human tumor xenograft model; cited from earlier work. For orientation: A xenograft is tissue or cells of one species grown in another, often human tumour cells in immunodeficient mice.

Where two headings read alike, the source gives them in different places.

Description for Aurora-A kinase: The reaction wells were mixed, and the relative fluorescence unit (RFU) data were collected every 3 min for 30 min at 30 °C. The used λEx/Em of the chelated Mg^2+ with the Sox was 360/485 nm.

On to “4-((5-amino-1-((3,5-bis(trifluoromethyl)phenyl)sulfonyl)-1H-1,2,4-triazol-3-yl)amino)benzenesulfonamide [Compound 1d]”, for which the IC50 against Aurora-A kinase (Mean ± SEM of 3 independent experiments, 1.25 nM Aurora-A kinase, 15 µM ATP, 10 µM CSox-peptide substrate) turned out to be 1780 ± 340 nM.
As for `Nc1nc(Nc2ccc(S(N)(=O)=O)cc2)nn1S(=O)(=O)c1ccccc1` [Compound 1a, 4-((5-amino-1-(phenylsulfonyl)-1H-1,2,4-triazol-3-yl)amino)benzenesulfonamide], the melting point was in the range of 229 to 231 °C. At Aurora-A kinase, this compound registered a concentration for half-maximal inhibition (IC50) of 130 ± 60 nM.
Turning to `Nc1nc(Nc2ccc(S(N)(=O)=O)cc2)nn1S(=O)(=O)c1c(F)cccc1F` [Compound 1b, 4-((5-amino-1-((2,6-difluorophenyl)sulfonyl)-1H-1,2,4-triazol-3-yl)amino)benzenesulfonamide], the IC50 against Aurora-A kinase amounted to 210 ± 20 nM.
At Aurora-A kinase, `Cc1ccc(S(=O)(=O)n2nc(Nc3ccc(S(N)(=O)=O)cc3)nc2N)cc1` [Compound 1c, 4-((5-amino-1-tosyl-1H-1,2,4-triazol-3-yl)amino)benzenesulfonamide] showed a 50% inhibitory concentration (IC50) of 230 ± 20 nM.
For `Nc1nc(Nc2ccc(S(N)(=O)=O)cc2)nn1C(=O)c1c(F)cccc1F` [JNJ-7706621], in data set [1] (normal cell growth), the “growth inhibition of normal cells relative to cancerous cell lines” value was “several folds less potent at inhibiting normal cell growth”. For the same compound, the antiproliferative activity entry in data set [1] (various cancerous cell lines) is recorded as “potent antiproliferative activity”. For the same compound, in the data set with DLBC lymphoma cell lines, the “reversal of resistance to CD37-targeted radioimmunotherapy” value is “promoted the reversal of resistance”. Besides, the tumor size entry in data set [2] is on record as “significantly reduced the tumor size”.

In general, IC50 refers to the midpoint of a concentration-inhibition curve. A higher IC50 goes with weaker potency. In general, melting point refers to the temperature of the solid-liquid transition.

These data come from PMC8469531, “Design, Synthesis, and Biochemical Evaluation of New Triazole Derivatives as Aurora-A Kinase Inhibitors” (Molecules, 2021).
